In PubChem BioAssay (NCI):
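Assay format: 96-well plates, 48-hour exposure. GI50 is the concentration that inhibits growth by half. At the TGI there is no net growth.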 Where a SMILES comes first, the peptide text is derived from it. [ ]: non-standard residue; d: D form. Ava = NCCCCC(=O)O; Mpa = O=C(O)CCS

Key:
Assay in all cases: inhibition of tumour cell growth, NCI panel, 48 h
[1] = system: SK-MEL-2 melanoma
[2] = system: SK-MEL-28 melanoma
[3] = system: LOX IMVI melanoma
[4] = system: SK-OV-3 ovarian
[5] = system: A498 renal
[6] = system: IGROV1 ovarian
[7] = system: SNB-19 CNS
[8] = system: OVCAR-4 ovarian
[9] = system: PC-3 prostate
[10] = system: MDA-N

Compound | TGI [1] | TGI [2] | TGI [3] | TGI [4] | TGI [5] | TGI [6] | TGI [7] | TGI [8] | TGI [9] | TGI [10] | GI50 [3] | GI50 [7]
Cc1cccc2c(=O)c3cccc([C@H](C)C(=O)O)c3oc12 | > 100 µM | > 100 µM | > 100 µM | > 100 µM | > 100 µM | > 100 µM | > 100 µM | > 100 µM | > 100 µM | > 100 µM | – | –
CC(C)(C)OC(=O)NC(CSCc1ccc(C(=O)c2ccccc2)cc1)C(=O)N1CCN(CCCCN2c3ccccc3Sc3cc(N=[N+]=[N-])ccc32)CC1 (configuration not stated) | > 100 µM | > 100 µM | > 100 µM | > 100 µM | > 100 µM | > 100 µM | > 100 µM | > 100 µM | > 100 µM | > 100 µM | – | –
Cc1ccc([N+](=O)[O-])cc1S(=O)(=O)Nc1ccc(C2=NN(S(=O)(=O)c3cc([N+](=O)[O-])ccc3C)C(c3cccs3)C2)cc1 (configuration not stated) | 69.2 µM | > 100 µM | > 100 µM | > 100 µM | 78.6 µM | > 100 µM | > 100 µM | > 100 µM | > 100 µM | > 100 µM | – | –
O=C(N/N=C\c1ccc(Cl)cc1)Nc1ccc2ccccc2c1 | > 100 µM | > 100 µM | > 100 µM | > 100 µM | > 100 µM | > 100 µM | > 100 µM | 39.2 µM | > 100 µM | > 100 µM | – | –
O=C(O)c1ccc2c(O)c(O)ccc2c1 | 67.3 µM | > 100 µM | 57 µM | > 72.5 µM | 97.9 µM | 38.2 µM | 36.1 µM | 54.1 µM | > 78.8 µM | 38.5 µM | – | –
COP(=O)(OC)C(N)Cc1c[nH]c2ccccc12 (configuration not stated) | > 100 µM | > 100 µM | > 100 µM | > 100 µM | > 100 µM | > 100 µM | > 100 µM | > 100 µM | > 100 µM | > 100 µM | – | –
O=C1/C(=C/c2cccc([N+](=O)[O-])c2)N=C(c2ccccc2)N1c1nc2ccc(Sc3ccccc3)cc2[nH]1 | > 100 µM | > 100 µM | > 100 µM | > 100 µM | > 100 µM | > 100 µM | > 100 µM | > 100 µM | > 100 µM | 33.3 µM | – | –
CCCCn1c(=O)[nH]c2c(N)ncnc21 | > 100 µM | > 100 µM | > 100 µM | > 100 µM | > 100 µM | > 100 µM | > 100 µM | > 100 µM | > 100 µM | > 100 µM | – | –
O=C(Cn1c2ccc(Br)cc2c2nc3ccccc3nc21)NCc1ccccc1 | 95.1 µM | > 100 µM | > 100 µM | > 100 µM | > 100 µM | > 100 µM | 72.4 µM | > 100 µM | > 100 µM | > 100 µM | – | –
CCN(CC)Cc1cc(N=Nc2c(O)ccc3c(N=Nc4ccc(O)c(CN(CC)CC)c4)c(O)ccc23)ccc1O | > 51.6 µM | 20 µM | 3.37 µM | 6.85 µM | 27.9 µM | 19 µM | 15.6 µM | 7.21 µM | > 41.1 µM | 18 µM | – | –
COc1ccc(N2C(=O)C3ON(Cc4ccc(CC(N)=O)cc4)C(c4c5ccccc5c(C)c5ccccc45)C3C2=O)cc1 (configuration not stated) | 48.7 µM | > 100 µM | > 100 µM | > 100 µM | > 100 µM | > 100 µM | > 100 µM | 96.5 µM | > 100 µM | > 100 µM | – | –
CC(C#N)(NO)C(C)(C#N)NO (configuration not stated) | > 100 µM | > 100 µM | > 100 µM | > 100 µM | > 100 µM | > 100 µM | > 100 µM | > 100 µM | > 100 µM | > 100 µM | – | –
CS(=O)(=O)OCCN(CCOS(C)(=O)=O)c1ccc(C=Nc2ccc(-c3csc(Cc4ccccc4)n3)cc2)c(Cl)c1 | > 67.9 µM | > 100 µM | > 57.3 µM | > 77.7 µM | 0.321 µM | > 74.2 µM | > 89.6 µM | > 100 µM | > 79.8 µM | > 76.3 µM | – | –
COc1cc2c(cc1OC)C(CCN)=NCC2 | 31.9 µM | 33.2 µM | 36.7 µM | > 100 µM | 62.8 µM | 52 µM | > 100 µM | 47.4 µM | 29.6 µM | 30.5 µM | – | –
Cc1ccc(C(=O)Nc2ccc(S(=O)(=O)O)c3cc(S(=O)(=O)O)cc(S(=O)(=O)O)c23)cc1NC(=O)c1cccc(NC(=O)Nc2cccc(C(=O)Nc3cc(C(=O)Nc4ccc(S(=O)(=O)O)c5cc(S(=O)(=O)O)cc(S(=O)(=O)O)c45)ccc3C)c2)c1 | > 100 µM | > 100 µM | > 100 µM | > 100 µM | > 100 µM | > 100 µM | > 100 µM | > 100 µM | > 100 µM | > 100 µM | – | –
CCO/N=C\c1ccc2oc(-c3ccccc3)cc(=O)c2c1 | 4.54 µM | > 100 µM | > 48.7 µM | 24 µM | 21.9 µM | 10.7 µM | 19.8 µM | > 85.9 µM | 20.4 µM | 0.105 µM | – | –
CN(C)N1C(=O)C(=O)N(c2cccc3ccccc23)C1=O | > 10 µM | > 10 µM | > 10 µM | > 10 µM | > 10 µM | > 10 µM | > 10 µM | > 10 µM | > 10 µM | > 10 µM | – | –
CC1=C(C)C(=O)OC(C(C)(O)C2(O)CC3OC34C3CC(O)C56OC5C=CC(=O)C6(C)C3CCC42C)C1 (configuration not stated) | 10.8 µM | 4.24 µM | 5.38 µM | 14.2 µM | 7.81 µM | 6.09 µM | 19.9 µM | 20.3 µM | 14.2 µM | 15.5 µM | – | –
CN1C/C(=C\c2cccs2)C2=NN(c3ccccc3)C(c3cccs3)C2C1 (configuration not stated) | > 100 µM | > 100 µM | > 100 µM | > 100 µM | > 90.2 µM | > 25.5 µM | > 100 µM | > 100 µM | > 100 µM | 3.99 µM | – | –
ClCCCN1CCN(CCCl)CC1 | 760 µM | > 1000 µM | 608 µM | 166 µM | 774 µM | 652 µM | > 1000 µM | 430 µM | > 1000 µM | 742 µM | 23.9 µM | 99.1 µM
COC(=O)C1(Cc2ccc3c(c2)CCC3)Cc2ccc3c(c2C1=O)CCC3 (configuration not stated) | 15.4 µM | > 100 µM | > 65.3 µM | > 100 µM | 46.5 µM | > 100 µM | > 100 µM | > 66.7 µM | > 95.2 µM | 5.78 µM | – | –
O=c1c(NCc2ccccc2)c(C2(c3ccccc3F)SCCCS2)c1=O | > 100 µM | > 100 µM | > 100 µM | > 100 µM | > 100 µM | > 100 µM | > 100 µM | > 100 µM | > 100 µM | > 100 µM | – | –
CCC1c2[nH]c3ccccc3c2C[C@H]2C(=O)NC(C)C(=O)N12 (some centres not stated) | > 100 µM | > 100 µM | > 100 µM | > 100 µM | > 100 µM | > 100 µM | > 100 µM | > 100 µM | > 100 µM | > 100 µM | – | –
O=C(CCCc1cccc2[nH]c3c(c12)CN(Cc1ccccc1)CC3)c1ccc(F)cc1 | > 100 µM | > 100 µM | > 100 µM | > 100 µM | > 100 µM | > 100 µM | > 100 µM | > 100 µM | > 100 µM | > 100 µM | – | –
COc1ccc(SCc2cc(OC)ccc2OC)cc1 | > 88.8 µM | > 100 µM | > 100 µM | > 71.8 µM | > 87.1 µM | > 100 µM | > 100 µM | > 100 µM | > 100 µM | 32.7 µM | – | –
CCC(C)C(Nc1c2ccccc2nc2c(C(=O)NCCN(C)C)cccc12)C(=O)O (configuration not stated) | 46.7 µM | 67.1 µM | > 100 µM | > 100 µM | 42.4 µM | > 100 µM | > 100 µM | 25.8 µM | > 100 µM | 86.4 µM | – | –
CC(NC(=O)CCS)C(=O)NC(C)C(=O)NC(Cc1c[nH]c2ccccc12)C(=O)NC(Cc1c[nH]cn1)C(=O)NC(CO)C(=O)NC(Cc1c[nH]c2ccccc12)C(=O)NCCCCC(=O)NC(C)C(=O)NC(CCC(N)=O)C(=O)NC(CCCCN)C(=O)NC(C)C(=O)NC(CCCNC(=N)N)C(=O)NC(CCCCN)C(N)=O (configuration not stated) ([Mpa]AAWHSW[Ava]AQKARK-NH2; configuration not given here) | > 100 µM | > 100 µM | > 100 µM | > 100 µM | > 100 µM | > 100 µM | > 100 µM | > 100 µM | > 100 µM | > 100 µM | – | –
COc1cc(/C=C2\C(=O)N(c3cccc(NC(C)=O)c3)C(c3ccccc3)S2(=O)=O)cc(OC)c1OC (configuration not stated) | > 100 µM | > 100 µM | > 100 µM | > 100 µM | > 100 µM | > 100 µM | > 100 µM | > 100 µM | > 100 µM | > 100 µM | – | –
